Source: patent publication US9884832B2 (priority 2011, dated 2018)
Like-named read-outs stand apart in the source and are kept apart here.

Columns and labels:
[1] = molecular target: AM2 S31N (serine→asparagine mutation at residue 31 in the M2 protein) (Influenza A virus, UniProt P0DOF5, S31N); type: cell-based, influenza virus A/Udorn/72
[2] = molecular target: AM2 V27A (valine→alanine mutation at residue 27 in the M2 protein) (Influenza A virus, UniProt P0DOF5, V27A); type: cell-based, influenza virus A/Udorn/72

| Compound | S31N OOcyte Inhibition at 100 uM (%) ([1]; pH 5.5) | V27A OOcyte Inhibition at 100 uM (%) ([2]; pH 5.5) | S31N OOcyte Inhibition at 100 uM (%) [1] | V27A OOcyte Inhibition at 100 uM (%) [2] |
| --- | --- | --- | --- | --- |
| COc1ccc(CNC23CC4CC(CC(C4)C2)C3)cc1O [Example 61, 5-(Adamantan-1-ylaminomethyl)-2-methoxy-phenol] | B (key: (A)=31-95%; (B)=0-30%) | A (key: (A)=31-95%; (B)=0-30%) |  |  |
| O=[N+]([O-])c1ccccc1CNC12CC3CC(CC(C3)C1)C2 [Example 30, Adamantan-1-yl-(2-nitro-benzyl)-amine] | B (key: (A)=31-95%; (B)=0-30%) | B (key: (A)=31-95%; (B)=0-30%) |  |  |
| c1ccc2sc(CNC34CC5CC(CC(C5)C3)C4)nc2c1 [Example 91, Adamantan-1-yl-benzothiazol-2-ylmethyl-amine] | A (key: (A)=31-95%; (B)=0-30%) | B (key: (A)=31-95%; (B)=0-30%) |  |  |
| Cc1c(CNC23CC4CC(CC(C4)C2)C3)sc2ccccc12 [Example 177a, Adamantan-1-yl-(3-methyl-benzo[b]thiophen-2-ylmethyl)-amine] |  |  | B (key: (A)=31-95%; (B)=0-30%) | B (key: (A)=31-95%; (B)=0-30%) |
| c1csc(-c2ccc(CNC34CC5CC(CC(C5)C3)C4)cc2)c1 [Example 44, N-(4-(Thiophen-2-yl)benzyl)adamantan-1-amine] | A (key: (A)=31-95%; (B)=0-30%) | B (key: (A)=31-95%; (B)=0-30%) |  |  |
| Cc1nc(CNC23CC4CC(CC(C4)C2)C3)c[nH]1 [Example 99a, N-((2-methyl-1H-imidazol-4-yl)methyl)adamantan-1-amine] |  |  | B (key: (A)=31-95%; (B)=0-30%) | B (key: (A)=31-95%; (B)=0-30%) |
| c1cc2[nH]c(CNC34CC5CC(CC(C5)C3)C4)cc2s1 [Example 80, Adamantan-1-yl-(4H-thieno[3,2-b]pyrrol-5-ylmethyl)-amine] | A (key: (A)=31-95%; (B)=0-30%) | B (key: (A)=31-95%; (B)=0-30%) |  |  |
| Oc1ccc(CNC23CC4CC(CC(C4)C2)C3)c(O)c1 [Example 46, 4-(Adamantan-1-ylaminomethyl)-benzene-1,3-diol] | A (key: (A)=31-95%; (B)=0-30%) | A (key: (A)=31-95%; (B)=0-30%) |  |  |
| Cc1ccc(-c2ccc(CNC34CC5CC(CC(C5)C3)C4)cc2)o1.Cl [Example 32a, N-(4-(5-Methylfuran-2-yl)benzyl)adamantan-1-amine hydrochloride] |  |  | A (key: (A)=31-95%; (B)=0-30%) | B (key: (A)=31-95%; (B)=0-30%) |
| c1ncc(CCNCC23CC4CC(CC(C4)C2)C3)[nH]1 [Example 1, Adamantan-1-ylmethyl-[2-(3H-imidazol-4-yl)-ethyl]-amine] | B (key: (A)=31-95%; (B)=0-30%) | B (key: (A)=31-95%; (B)=0-30%) |  |  |
| COc1ccccc1CNC12CC3CC(CC(C3)C1)C2 [Example 29, Adamantan-1-yl-(2-methoxy-benzyl)-amine] | B (key: (A)=31-95%; (B)=0-30%) | B (key: (A)=31-95%; (B)=0-30%) |  |  |
| OCC(Cc1cnc[nH]1)NCC12CC3CC(CC(C3)C1)C2 (stereo not shown) [Example 2, 2-[(adamantan-1-ylmethyl)-amino]-3-(3H-imidazol-4-yl)-propan-1-ol] | B (key: (A)=31-95%; (B)=0-30%) | B (key: (A)=31-95%; (B)=0-30%) |  |  |
| Oc1ccc(CNC23CC4CC(CC(C4)C2)C3)cc1O [Example 45, 4-(Adamantan-1-ylaminomethyl)-benzene-1,2-diol] | B (key: (A)=31-95%; (B)=0-30%) | A (key: (A)=31-95%; (B)=0-30%) |  |  |
| Oc1ccc2[nH]c(CNC34CC5CC(CC(C5)C3)C4)cc2c1 [Example 179a] |  |  | B (key: (A)=31-95%; (B)=0-30%) | B (key: (A)=31-95%; (B)=0-30%) |
